According to US20260327216A1, “SUBSTITUTED OXAZOLONE COMPOUND FOR DECREASING LEVELS OF IKZF I-4 PROTEINS” (BRISTOL-MYERS SQUIBB COMPANY, priority 2023, published 2026):

Columns and labels:
Assay type in all cases: cell-based
[1] = target: IKZF3 Aiolos (Homo sapiens, UniProt Q96SW2+Q9UKT9); experiment: Jurkat Cellular Degradation Assay, IKZF3; parameters: endogenous in cells; conditions: Jurkat cells, 72 h; for Dmax: human, 100% = complete degradation, 0% = no detectable degradation, read-out: IKZF3 Aiolos max % deg. observed
Method: (§1) Jurkat cells were plated at 80,000 cells/well in 40 μL RPMI+10% FBS in a 384-well cell culture plate prior to using acoustic dispensing technology for adding a compound of interest. Cell cultures were incubated for 72 h at 37° C. and 5% CO2. In order to facilitate analysis, cell cultures were spun down at 200 rpm for 5 min and the supernatant was discarded. After shaking the plate to dislodge the cell pellet, cells were resuspended in 50 μL of Fixation Buffer (eBioscience FoxP3 buffer set 00-5523-00) for 60 min at room temperature. After centrifuging and discarding the supernatant, cells were permeabilized with 50 μL of Permeabilization buffer (eBioscience FoxP3 buffer set 00-5523-00) for 10 min at room temperature. Following permeabilization, cells were spun down and the supernatant was replaced with 20 μL fluorescently labelled antibodies against Helios, Ikaros and Aiolos or corresponding Isotype controls in 1× Permeabilization buffer (Ikaros-Alexa488 [Biolegend, Cat #368408, 1:50], Helios-PE [CST, Cat #29360, 1:50], Aiolos-Alexa647 [Biolegend, Cat #371106 Biolegend, 1:25]) and staining reactions were incubated for 1 h at room temperature while protected from light. Subsequently, 30 μL of 1× Permeabilization buffer was added prior to centrifuging the cells and discarding the supernatant. Stained cells were resuspended in 25 μL of flow cytometry staining buffer [PBS+0.2% bovine serum albumin (BSA)] and analyzed using an Intellicyt Ique Plus flow cytometer.
(§2) Table A-1 lists the maximum observed degradation of the IKZF1 protein, IKZF2 protein, and IKZF3 protein as measured in the Jurkat Cellular Degradation assay. The results in Table A-1 were rounded to two digits. In the Jurkat Cellular Degradation assay, a value of 100% indicated no detectable protein remaining or complete degradation of the protein; and a value of 0% indicated no detectable degradation of the protein by the test compound.

[2] = target: T1, IKZF4 Eos (Homo sapiens, UniProt Q96SW2+Q9H2S9); experiment: Human Regulatory T Cell Reprogramming Assay, IKZF4; conditions: 12-13 days; for Dmax: Regulatory T cell, human, read-out: IKZF4 Eos max % deg. observed; for Dmax / IKZF4 Eos max % deg. observed: human CD4+CD127lowCD25+ Treg cells, stimulated, 100% = complete degradation
T1 construct: endogenous in cells; host or cells: FACS-sorted human CD4+CD127lowCD25+ Treg cells from healthy leukopaks
Method: Human CD4^+ T cells were isolated from fresh healthy leukopaks (Stemcell Technologies) using the RosetteSep Human CD4^+ T cell enrichment cocktail (Stemcell Technologies) and Ficoll density gradient centrifugation. Leukopaks were diluted with an equal volume of phosphate-buffered saline (PBS [Gibco]) supplemented with 2% fetal bovine serum (FBS, VWR Lifescience) and incubated with RosetteSep Human CD4^+ T cell enrichment cocktail for 20 minutes before layering on Ficoll-Paque Plus solution (GE Health Care). The cell-rich interface layer was harvested and washed twice with PBS supplemented with 2% FBS. Regulatory T cells were then isolated manually using the EasySep Human CD4^+CD127^lowCD25^+ Regulatory T cell isolation kit (Stemcell Technologies) according to the manufacturer's instructions. Cells were rested overnight in Roswell Park Memorial Institute (RPMI) 1640 media (Gibco) supplemented with 10% FBS, Pen/Strep (Gibco), MEM-NEAA (Gibco), and sodium pyruvate (Gibco) in a humidified incubator (37° C., 5% CO2). Cells were then stained for CD4 (clone: RPA-T4, Biolegend), CD25 (clone: 2A3, BD Biosciences), and CD127 (clone: hIL-7R-M21, BD Biosciences). CD4^+CD127^lowCD25^+ cells were sorted on a BD FACS Aria Fusion sorter to a purity of 95% or greater. Sorted cells were immediately used or cryopreserved for downstream assays.
Fresh or cryopreserved FACS-sorted CD4^+CD127^lowCD25^+ Treg cells were cultured at 25,000-50,000 cells/well of 96-well round bottom plates in RPMI 1640 media (Gibco) supplemented with 10% FBS, Pen/Strep (Gibco), MEM-NEAA (Gibco), and sodium pyruvate (Gibco). Cells were stimulated with Treg Xpander beads (Thermo Fisher) at cells-to-beads ratio of 1:4 in the presence of 500 U/mL recombinant human IL-2 (Proleukin). Compounds were added at titrated doses and cells were incubated at 37°C., 5% CO2 for 12-13 days. Recombinant human IL-2 and compound were replenished every 2-3 days during the entire culture duration. On day 12 or 13, cells were restimulated with phorbol 12-myristate 13-acetate (PMA) and ionomycin in the presence of the protein transport inhibitors brefeldin A and monensin (eBioscience Cell Stimulation Cocktail plus protein transport inhibitors, 500×, Catalog number 00-4975-93) before proceeding with flow cytometry staining and analysis.
For flow cytometry staining, cells were washed twice with flow cytometry staining buffer (Thermo Fisher) and incubated in Human Tru-stain Fc block (Biolegend) for 10 minutes before adding eFluor780 viability dye (Thermo Fisher) and surface marker antibody cocktail for 30 minutes at 4° C. Cells were then fixed and permeabilized by incubation with FoxP3 transcription factor staining buffer (Thermo Fisher) for 30 minutes at 4° C. as per the kit manufacturer's instructions. Cells were washed twice with the Perm/Wash buffer supplied in the kit as per the manufacturer's instructions and incubated overnight at 4° C. with an intracellular antibody cocktail comprised of antibodies specific for the transcription factors shown in Table C. Cells were washed twice with Perm/Wash buffer and resuspended in flow cytometry staining buffer (Thermo Fisher) prior to acquisition. Sample acquisition and analysis was performed using a BD LSRFortessa (BD Biosciences) flow cytometer. Single stain controls for each fluorochrome were prepared using UltraComp eBead Compensation Beads (Thermo Fisher). Data were analyzed using FlowJo version 10 and GraphPad Prism Software.
as §2, with “C-1” for “A-1”, “the” for “the IKZF1 protein,”, “protein” for “protein,”, “IKZF4” for “IKZF3”, “Human Regulatory T Cell Reprogramming” for “Jurkat Cellular Degradation”

[3] = target: IKZF2 Helios (Homo sapiens, UniProt Q96SW2+Q9UKS7); experiment: Jurkat Cellular Degradation Assay, IKZF2; parameters: endogenous in cells; conditions: 72 h, Jurkat cells; for Dmax: Jurkat, human, 100% = complete degradation, 0% = no detectable degradation, read-out: IKZF2 Helios max % deg. observed
Method: as §1, §2

[4] = concentration reducing protein level by 50% vs DMSO

Sequence of IKZF2 Helios (Q9UKS7 whole entry): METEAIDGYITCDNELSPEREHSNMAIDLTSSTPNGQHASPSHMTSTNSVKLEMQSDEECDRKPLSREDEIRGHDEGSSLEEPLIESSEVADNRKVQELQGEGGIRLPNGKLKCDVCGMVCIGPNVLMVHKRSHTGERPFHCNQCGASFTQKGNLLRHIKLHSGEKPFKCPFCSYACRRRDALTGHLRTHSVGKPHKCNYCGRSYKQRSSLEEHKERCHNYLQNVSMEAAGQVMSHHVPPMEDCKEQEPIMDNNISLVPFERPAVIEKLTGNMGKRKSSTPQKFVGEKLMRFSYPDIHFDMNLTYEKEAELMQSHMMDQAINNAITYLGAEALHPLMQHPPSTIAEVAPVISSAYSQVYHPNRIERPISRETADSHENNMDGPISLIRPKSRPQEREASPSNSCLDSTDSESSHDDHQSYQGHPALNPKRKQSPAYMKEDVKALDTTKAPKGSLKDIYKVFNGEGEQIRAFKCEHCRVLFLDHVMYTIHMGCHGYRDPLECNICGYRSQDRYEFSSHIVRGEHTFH
Sequence of IKZF2 Helios (Q96SW2 whole entry): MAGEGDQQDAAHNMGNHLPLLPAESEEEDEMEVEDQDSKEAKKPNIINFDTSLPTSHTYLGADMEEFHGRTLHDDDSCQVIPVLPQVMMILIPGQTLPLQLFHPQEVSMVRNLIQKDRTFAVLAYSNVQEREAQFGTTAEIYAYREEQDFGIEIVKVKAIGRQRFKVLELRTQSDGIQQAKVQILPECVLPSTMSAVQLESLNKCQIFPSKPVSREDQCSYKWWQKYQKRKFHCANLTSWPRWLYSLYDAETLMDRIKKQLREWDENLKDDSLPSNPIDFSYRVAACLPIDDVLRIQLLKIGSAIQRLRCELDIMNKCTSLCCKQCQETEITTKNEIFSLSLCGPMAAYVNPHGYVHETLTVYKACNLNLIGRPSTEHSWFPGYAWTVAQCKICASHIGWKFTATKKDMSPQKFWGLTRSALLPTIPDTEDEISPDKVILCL
Sequence of IKZF2 Helios (Q16531 whole entry partner): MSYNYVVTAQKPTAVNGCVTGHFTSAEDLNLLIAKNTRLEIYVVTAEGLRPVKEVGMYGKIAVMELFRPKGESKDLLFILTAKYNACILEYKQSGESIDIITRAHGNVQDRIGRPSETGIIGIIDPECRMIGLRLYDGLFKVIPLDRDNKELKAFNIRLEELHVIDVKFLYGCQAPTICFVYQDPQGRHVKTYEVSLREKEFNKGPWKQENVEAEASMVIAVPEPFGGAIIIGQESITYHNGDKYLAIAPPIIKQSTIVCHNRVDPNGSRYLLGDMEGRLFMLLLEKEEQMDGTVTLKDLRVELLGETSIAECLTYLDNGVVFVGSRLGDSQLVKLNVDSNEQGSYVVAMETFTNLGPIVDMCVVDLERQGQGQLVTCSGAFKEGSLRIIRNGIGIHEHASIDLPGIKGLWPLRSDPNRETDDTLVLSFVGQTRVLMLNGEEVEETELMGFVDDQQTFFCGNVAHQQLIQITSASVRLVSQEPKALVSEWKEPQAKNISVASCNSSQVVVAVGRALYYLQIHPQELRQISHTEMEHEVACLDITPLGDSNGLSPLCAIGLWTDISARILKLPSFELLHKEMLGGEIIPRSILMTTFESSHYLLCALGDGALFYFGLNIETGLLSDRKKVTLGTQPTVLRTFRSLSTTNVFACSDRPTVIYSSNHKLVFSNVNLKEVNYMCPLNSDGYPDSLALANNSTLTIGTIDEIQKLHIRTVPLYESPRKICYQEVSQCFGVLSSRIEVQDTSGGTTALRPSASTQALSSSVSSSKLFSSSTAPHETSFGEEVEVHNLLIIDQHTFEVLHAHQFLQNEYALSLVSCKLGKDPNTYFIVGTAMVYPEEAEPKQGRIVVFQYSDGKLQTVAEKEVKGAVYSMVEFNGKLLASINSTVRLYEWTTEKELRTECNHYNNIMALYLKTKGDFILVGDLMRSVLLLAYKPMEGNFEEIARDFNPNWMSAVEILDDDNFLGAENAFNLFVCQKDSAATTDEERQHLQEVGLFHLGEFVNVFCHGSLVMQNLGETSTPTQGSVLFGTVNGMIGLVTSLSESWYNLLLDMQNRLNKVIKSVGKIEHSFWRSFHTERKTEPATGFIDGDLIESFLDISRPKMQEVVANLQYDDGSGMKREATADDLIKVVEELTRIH
Sequence of IKZF3 Aiolos (Q9UKT9 whole entry): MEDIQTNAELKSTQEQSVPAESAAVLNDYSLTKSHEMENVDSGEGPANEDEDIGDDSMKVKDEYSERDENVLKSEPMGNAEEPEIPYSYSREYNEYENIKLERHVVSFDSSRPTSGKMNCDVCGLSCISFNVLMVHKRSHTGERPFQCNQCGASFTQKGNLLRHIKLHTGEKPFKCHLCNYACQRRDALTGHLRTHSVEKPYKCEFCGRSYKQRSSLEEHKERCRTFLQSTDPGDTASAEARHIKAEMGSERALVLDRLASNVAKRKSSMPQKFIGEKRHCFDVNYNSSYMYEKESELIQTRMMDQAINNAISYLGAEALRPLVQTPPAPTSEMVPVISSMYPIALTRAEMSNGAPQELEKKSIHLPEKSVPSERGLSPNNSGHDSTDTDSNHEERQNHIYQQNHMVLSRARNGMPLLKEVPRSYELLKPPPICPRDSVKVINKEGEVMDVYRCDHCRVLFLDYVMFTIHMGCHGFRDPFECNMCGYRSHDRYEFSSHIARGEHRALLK
Sequence of IKZF3 Aiolos (Q96SW2 whole entry): as the sequence (Q96SW2 whole entry) above
Sequence of IKZF3 Aiolos (Q16531 whole entry partner): as the sequence (Q16531 whole entry partner) above
T1 sequence (Q9H2S9 whole entry): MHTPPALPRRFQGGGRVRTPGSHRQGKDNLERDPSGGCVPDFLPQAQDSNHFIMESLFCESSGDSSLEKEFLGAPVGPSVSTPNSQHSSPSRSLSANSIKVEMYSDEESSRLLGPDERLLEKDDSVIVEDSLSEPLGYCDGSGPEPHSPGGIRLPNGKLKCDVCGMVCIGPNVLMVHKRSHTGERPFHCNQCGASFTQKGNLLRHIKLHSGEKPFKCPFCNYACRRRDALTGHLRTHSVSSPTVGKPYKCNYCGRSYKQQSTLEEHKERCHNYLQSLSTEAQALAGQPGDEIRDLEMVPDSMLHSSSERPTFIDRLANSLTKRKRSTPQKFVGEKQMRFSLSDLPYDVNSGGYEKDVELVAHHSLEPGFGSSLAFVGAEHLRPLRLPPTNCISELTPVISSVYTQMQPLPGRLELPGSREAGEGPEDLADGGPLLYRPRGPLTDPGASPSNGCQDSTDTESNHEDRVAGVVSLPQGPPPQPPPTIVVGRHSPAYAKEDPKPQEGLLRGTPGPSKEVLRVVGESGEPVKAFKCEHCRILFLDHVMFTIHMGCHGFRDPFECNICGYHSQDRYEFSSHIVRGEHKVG
T1 sequence (Q96SW2 whole entry): as the sequence (Q96SW2 whole entry) above
T1 sequence (Q16531 whole entry partner): as the sequence (Q16531 whole entry partner) above

| Dmax [1] | Dmax [2] | IKZF4 Eos max % deg. observed [2] | Dmax [3] | DC50 [1, 4] | DC50 [3, 4] | DC50 ([2]; human Treg cells, concentration reducing protein level by 50% vs DMSO) | Structure (SMILES) |
| --- | --- | --- | --- | --- | --- | --- | --- |
| 15% | ≤ 11% | 11% |  |  |  |  | O=C1CCC(n2cc(-c3ccc(Br)cc3F)oc2=O)C(=O)N1 (stereo not shown) [Comparative Compound B, 3-(5-(4-bromo-2-fluorophenyl)-2-oxooxazol-3(2H)-yl)piperidine-2,6-dione] |
| 46% |  | 0% | < 30% |  |  |  | O=C1CCC(n2cc(-c3ccccc3)oc2=O)C(=O)N1 (stereo not shown) [Comparative Compound A, 3-(2-oxo-5-phenyloxazol-3(2H)-yl)piperidine-2,6-dione] |
| 52% | 68 to 71% | 68-71% | > 90% | 9010 nM | 17.9 nM | 0.45 nM | Cc1cc(-c2ccc(-c3cn(C4CCC(=O)NC4=O)c(=O)o3)c(F)c2)nc(N)c1OC(F)F (stereo not shown) [Example 1, 3-(5-(4-(6-Amino-5-(difluoromethoxy)-4-methylpyridin-2-yl)-2-fluorophenyl)-2-oxooxazol-3(2H)-yl)piperidine-2,6-dione] |
